Results from patent US20140107219A1, “LOCAL ANAESTHETIC” (VITA (EUROPE) LIMITED, priority 2011, published 2014).
pIC50: −log10 of the molar value. Where “and” joins values, the source holds several entries; their conditions need not be identical. Equal entries are not always repeated. Where two headings read alike, the source gives them in different places.

Columns and labels:
[1] = test system: isolated sciatic nerve of the rat; assay: Evoked compound action potential (CAP) of the isolated rat sciatic nerve in a three-chamber bath (ex vivo): inhibition and recovery after washout
[2] = test system: peripheral nervous system of the rat; settings: in-vivo; cited from earlier work
[3] = test system: gastrocnemius muscle; assay: In vivo muscle CAP (mCAP, EMG integral) after intramuscular injection, gastrocnemius muscle; set-up: species or system rat
[4] = biological target: T1, hNav1.6 sodium channels (SCN8A gene, expressed in CHO cells) (Homo sapiens, UniProt Q9UQD0); assay: Automated patch clamp (PatchXpress 7000A), cloned hNav1.6 in CHO cells, tonic and phasic; assay type: cell-based; settings: for inhibition at 730 µg/mL / inhibition at 1460 µg/mL / inhibition at 2190 µg/mL / inhibition at 2920 µg/mL: CHO
T1 construct: expressed in transfected cells; host or cells: CHO cells
Description: In this example, the in vitro effects of 2-heptanone on the following ion channels were evaluated at room temperature using the PatchXpress 7000A (Molecular Devices), an automatic parallel patch clamp system:
1. Cloned hNav1.2 sodium channels (SCN2A gene, expressed in CHO cells). 2. Cloned hNav1.6 sodium channels (SCN8A gene, expressed in CHO cells).
The effects of 2-heptanone were evaluated at 0.73, 1.46, 2.19, and 2.92 mg/ml with each concentration tested in two cells (n=2). The duration of exposure to each concentration of 2-heptanone was 5 minutes. Tables 2 to 5 show the individual results from each concentration followed by individual concentration-response curves. The positive controls (Table 6) confirm the sensitivity of the test systems to inhibition.
. Br. J. Pharmacol. 164, 719-730). […]

[5] = in vivo; cited from earlier work

T1 sequence (Q9UQD0 whole entry): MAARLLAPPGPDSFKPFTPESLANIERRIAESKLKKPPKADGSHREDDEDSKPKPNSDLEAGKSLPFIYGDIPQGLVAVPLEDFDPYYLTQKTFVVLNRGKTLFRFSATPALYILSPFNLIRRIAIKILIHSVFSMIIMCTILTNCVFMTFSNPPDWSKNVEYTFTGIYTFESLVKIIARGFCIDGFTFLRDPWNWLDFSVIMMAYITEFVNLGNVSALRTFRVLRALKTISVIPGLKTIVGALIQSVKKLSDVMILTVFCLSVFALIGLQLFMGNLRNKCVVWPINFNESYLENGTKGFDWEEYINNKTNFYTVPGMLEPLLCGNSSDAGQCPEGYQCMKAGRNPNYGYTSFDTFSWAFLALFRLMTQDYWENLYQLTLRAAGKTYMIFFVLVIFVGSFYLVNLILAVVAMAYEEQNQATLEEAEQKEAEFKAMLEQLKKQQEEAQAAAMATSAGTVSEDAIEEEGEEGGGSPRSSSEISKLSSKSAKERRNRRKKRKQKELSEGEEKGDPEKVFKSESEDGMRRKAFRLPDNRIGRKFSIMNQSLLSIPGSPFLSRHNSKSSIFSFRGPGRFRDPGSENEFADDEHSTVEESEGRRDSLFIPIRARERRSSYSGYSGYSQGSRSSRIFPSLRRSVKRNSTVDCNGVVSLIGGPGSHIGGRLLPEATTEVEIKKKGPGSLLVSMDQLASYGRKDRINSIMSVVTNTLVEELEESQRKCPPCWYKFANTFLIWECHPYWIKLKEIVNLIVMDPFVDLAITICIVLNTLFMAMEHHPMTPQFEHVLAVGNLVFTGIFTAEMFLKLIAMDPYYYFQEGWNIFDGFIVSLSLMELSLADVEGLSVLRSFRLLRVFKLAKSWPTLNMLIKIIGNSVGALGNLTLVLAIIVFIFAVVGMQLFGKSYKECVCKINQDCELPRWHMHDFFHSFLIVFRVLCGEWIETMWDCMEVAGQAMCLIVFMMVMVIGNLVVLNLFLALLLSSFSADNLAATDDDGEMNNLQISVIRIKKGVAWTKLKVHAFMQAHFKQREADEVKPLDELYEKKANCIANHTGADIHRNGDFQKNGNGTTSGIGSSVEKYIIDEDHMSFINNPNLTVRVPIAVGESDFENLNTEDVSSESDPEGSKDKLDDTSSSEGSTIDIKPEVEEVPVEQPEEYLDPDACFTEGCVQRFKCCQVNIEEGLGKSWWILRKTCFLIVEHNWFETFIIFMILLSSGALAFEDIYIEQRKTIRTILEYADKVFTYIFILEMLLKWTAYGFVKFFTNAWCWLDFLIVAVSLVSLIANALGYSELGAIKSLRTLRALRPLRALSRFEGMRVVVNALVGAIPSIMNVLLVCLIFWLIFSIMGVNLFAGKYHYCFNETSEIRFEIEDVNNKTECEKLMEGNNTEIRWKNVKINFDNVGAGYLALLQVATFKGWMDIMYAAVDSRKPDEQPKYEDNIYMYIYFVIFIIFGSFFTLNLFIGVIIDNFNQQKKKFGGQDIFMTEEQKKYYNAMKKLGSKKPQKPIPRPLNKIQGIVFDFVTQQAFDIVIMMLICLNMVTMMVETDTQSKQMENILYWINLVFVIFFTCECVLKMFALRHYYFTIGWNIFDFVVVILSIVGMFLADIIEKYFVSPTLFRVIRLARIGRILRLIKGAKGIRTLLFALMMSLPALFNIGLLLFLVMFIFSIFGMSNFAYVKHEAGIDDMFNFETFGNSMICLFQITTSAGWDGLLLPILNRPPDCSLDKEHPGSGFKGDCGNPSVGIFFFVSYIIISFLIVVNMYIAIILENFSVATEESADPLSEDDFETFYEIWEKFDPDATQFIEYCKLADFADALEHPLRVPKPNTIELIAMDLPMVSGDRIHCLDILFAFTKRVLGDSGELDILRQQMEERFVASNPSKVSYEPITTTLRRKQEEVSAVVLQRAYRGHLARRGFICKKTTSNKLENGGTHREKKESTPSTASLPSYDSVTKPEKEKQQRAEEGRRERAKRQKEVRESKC

CCCCCC(C)=O [2-heptanone]
recovery of the CAP after washout, % of control ([1]; after 1.41 mg/mL): above 87.5% | IC50 (concentration required to inhibit the CAP to 50% of control) ([1]; estimated from time-response curves, GraphPad Prism 5): 469 ± 2 µg/mL | neurotoxic effect on nerve fibres ([1]; ex vivo, within the limits of 24 h): no neurotoxic effect | fold slower than lidocaine ([1]; whole nerve preparation): 1.54 fold | neurotoxic effects on the peripheral nervous system [2]: no neurotoxic effects | recovery of mCAP after 3 h ([3]; 7.2 mg/kg intramuscular): 65.4±7.78% and 61% | IT50 of the integral of mCAPs ([3]; 7.2 mg/kg intramuscular, in Tween 80 + 0.9% NaCl): 25.78 s | IT50 of the integral of mCAPs ([3]; 10.8 mg/kg intramuscular): 11.16 s | recovery of mCAP, % of initial values after 3 h ([3]; 10.8 mg/kg intramuscular): no recovery | times more effective than lidocaine ([3]; similar IT50 at 7.2 mg/kg vs 10.8 mg/kg lidocaine): 1.5 times | times less active than lidocaine, hNav1.6 phasic [4]: 11.7 times | times less active than lidocaine, hNav1.6 tonic [4]: 4.6 times | Individual Data Points (% Inhibition), Nav1.6 phasic ([4]; 0.73 mg/ml, single cells): 81.1% | Individual Data Points (% Inhibition), Nav1.6 tonic ([4]; 0.73 mg/ml, single cells): 52.6% | Individual Data Points (% Inhibition), Nav1.6 phasic ([4]; 1.46 mg/ml, single cells): 99.9% | Individual Data Points (% Inhibition), Nav1.6 tonic ([4]; 1.46 mg/ml, single cells): 70.4% | Individual Data Points (% Inhibition), Nav1.6 phasic ([4]; 2.19 mg/ml, single cells): 101.0% | Individual Data Points (% Inhibition), Nav1.6 tonic ([4]; 2.19 mg/ml, single cells): 100.1% | Individual Data Points (% Inhibition), Nav1.6 phasic ([4]; 2.92 mg/ml, single cells): 100.7% | Individual Data Points (% Inhibition), Nav1.6 tonic ([4]; 2.92 mg/ml, single cells): 99.9% | inhibition at 730 µg/mL ([4]; 0.73 mg/ml, single cells, read-out: Individual Data Points (% Inhibition), Nav1.6 phasic): 94% | inhibition at 730 µg/mL ([4]; 0.73 mg/ml, single cells, read-out: Individual Data Points (% Inhibition), Nav1.6 tonic): 40.9% | inhibition at 730 µg/mL ([4]; 0.73 mg/ml, read-out: Mean % Inhibition, Nav1.6 phasic): 87.6% | inhibition at 730 µg/mL ([4]; 0.73 mg/ml, read-out: Mean % Nav1.6 Tonic Inhibition): 46.8% | inhibition at 1460 µg/mL ([4]; 1.46 mg/ml, single cells, read-out: Individual Data Points (% Inhibition), Nav1.6 phasic): 102% | inhibition at 1460 µg/mL ([4]; 1.46 mg/ml, single cells, read-out: Individual Data Points (% Inhibition), Nav1.6 tonic): 70.8% | inhibition at 1460 µg/mL ([4]; 1.46 mg/ml, read-out: Mean % Inhibition, Nav1.6 phasic): 101% | inhibition at 1460 µg/mL ([4]; 1.46 mg/ml, read-out: Mean % Nav1.6 Tonic Inhibition): 70.6% | inhibition at 2190 µg/mL ([4]; 2.19 mg/ml, single cells, read-out: Individual Data Points (% Inhibition), Nav1.6 phasic): 102% | inhibition at 2190 µg/mL ([4]; 2.19 mg/ml, single cells, read-out: Individual Data Points (% Inhibition), Nav1.6 tonic): 96.5% | inhibition at 2190 µg/mL ([4]; 2.19 mg/ml, read-out: Mean % Inhibition, Nav1.6 phasic): 101% | inhibition at 2190 µg/mL ([4]; 2.19 mg/ml, read-out: Mean % Nav1.6 Tonic Inhibition): 98.3% | inhibition at 2920 µg/mL ([4]; 2.92 mg/ml, single cells, read-out: Individual Data Points (% Inhibition), Nav1.6 phasic): 101% | inhibition at 2920 µg/mL ([4]; 2.92 mg/ml, single cells, read-out: Individual Data Points (% Inhibition), Nav1.6 tonic): 96.1% | inhibition at 2920 µg/mL ([4]; 2.92 mg/ml, read-out: Mean % Inhibition, Nav1.6 phasic): 101% | inhibition at 2920 µg/mL ([4]; 2.92 mg/ml, read-out: Mean % Nav1.6 Tonic Inhibition): 98% | pIC50 ([4]; Example 7, n=2, read-out: Nav1.6 phasic IC50): > 2.19 | IC50 ([4]; Example 7, n=2, read-out: Nav1.6 tonic IC50 (converted)): 7.06 mM and 7.07 mM | hNav1.6 IC50, phasic ([4]; Example 18, mean ± SEM): 820 ± 30 µg/mL | IC50 ([4]; Example 18, mean ± SEM, read-out: hNav1.6 IC50, tonic (converted)): 11.7 mM | Hill coefficient, Nav1.6 phasic ([4]; FIG. 41, mean±SE): 1.10±0.06 | Hill coefficient, Nav1.6 tonic ([4]; FIG. 41, mean±SE): 1.35±0.12 | acute LD50 [5]: 1760 mg/kg
